The numbers were not newly measured in paper PMC13005129 (Biochemistry, 2025), which cites them from elsewhere.

The subject of one data set is Gq/11. As to conditions: cultured cells.
The test system of data set [1] is M3Rs expressed by immortalized human airway smooth muscle (ASM) cells.

Starred links: 1 amine or outer side, 2 acyl side, 3 side chain; linkers in the order of their positions; H or OH if unused. Positions of bridges follow the written chain, without caps; N, C: chain ends. Non-standard residues stand in square brackets, D forms with d. Residues, ends and D or L forms follow the SMILES beside them. *: point of attachment. Leu(3R-OH,Nα-propionyl) = CCC(=O)N[C@H](C(=O)*)[C@H](O)C(C)C; X1 = CC(C)[C@@H](O[*:3])[C@H](N[*:1])C(=O)[*:2]; NMeT = CN[C@H](C(=O)O)[C@@H](C)O; dPhLac = O=C(O)[C@H](O)Cc1ccccc1; NMeA = CN[C@@H](C)C(=O)O; NMeDha = C=C(NC)C(=O)O

Take `C=C1C(=O)N[C@@H](C)C(=O)N(C)[C@@H](C)C(=O)N[C@@H]([C@H](OC(=O)[C@@H](NC(=O)CC)[C@H](O)C(C)C)C(C)C)C(=O)N(C)[C@@H]([C@@H](C)OC)C(=O)O[C@H](C(C)C)[C@H](NC(C)=O)C(=O)O[C@H](Cc2ccccc2)C(=O)N1C` [FR900359] (Ac-[X1][dPhLac][NMeDha]A[NMeA][X1](Leu(3R-OH,Nα-propionyl))[NMeT](Me); ester 1-C): the “block of M3R-mediated increases in [Ca2+]i” value in the data set with Gq/11 is “can be effectively blocked”.

As to `CC(=O)OC(C)C[N+](C)(C)C` (centres unmarked) [methacholine], the “change in [Ca2+]i on M3R activation” value in data set [1] is “leads to an increase in [Ca^2+]i”.
